Experimental data reported in publication PMC4503722, “Novel Phenotypic Outcomes Identified for a Public Collection of Approved Drugs from a Publicly Accessible Panel of Assays” (PLoS ONE, 2015).

Columns and labels:
INS-1E cells [1] = format: cell-based, rat; settings: assay number 9; 0.1 mM glucose
INS-1E cells [2] = test: cells; format: cell-based, rat; settings: 5 mM glucose; for 5mMGluc_INS1E SecretionMod IC50/EC50: assay number 8
hGSK3b = molecular target: T1, hGSK3b (Homo sapiens, UniProt P49841); test: Cerep LANCE kinase assay hGSK3b (S1 assay 34); format: biochemical; settings: for hGSK3b LANCE IC50/EC50: assay number 34
T1 construct: purchased Cerep (LANCE kinase assay platform, contract assay)
T1 sequence (P49841 whole entry): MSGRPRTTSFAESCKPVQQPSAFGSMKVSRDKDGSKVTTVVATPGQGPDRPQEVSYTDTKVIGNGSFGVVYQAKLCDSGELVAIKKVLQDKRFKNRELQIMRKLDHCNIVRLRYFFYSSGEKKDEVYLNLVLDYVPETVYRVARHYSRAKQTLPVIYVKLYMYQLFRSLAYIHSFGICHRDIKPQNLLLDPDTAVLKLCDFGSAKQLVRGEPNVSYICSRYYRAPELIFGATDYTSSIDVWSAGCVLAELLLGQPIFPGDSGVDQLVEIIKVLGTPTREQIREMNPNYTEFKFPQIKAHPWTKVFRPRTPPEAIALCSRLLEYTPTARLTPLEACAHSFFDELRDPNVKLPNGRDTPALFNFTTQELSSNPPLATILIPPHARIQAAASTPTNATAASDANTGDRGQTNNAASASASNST

[3] = system: endothelial tube formation in co-cultures of ECFCs and ADSCs treated with VEGF; test: cells; format: cell-based, human
hJAK2 = molecular target: T2, hJAK2 (Homo sapiens, UniProt O60674); test: Cerep LANCE kinase assay hJAK2 (S1 assay 33); format: biochemical; settings: for hJAK2 LANCE IC50/EC50: assay number 33
T2 construct: purchased Cerep (LANCE kinase assay platform, contract assay)
T2 sequence (O60674 whole entry): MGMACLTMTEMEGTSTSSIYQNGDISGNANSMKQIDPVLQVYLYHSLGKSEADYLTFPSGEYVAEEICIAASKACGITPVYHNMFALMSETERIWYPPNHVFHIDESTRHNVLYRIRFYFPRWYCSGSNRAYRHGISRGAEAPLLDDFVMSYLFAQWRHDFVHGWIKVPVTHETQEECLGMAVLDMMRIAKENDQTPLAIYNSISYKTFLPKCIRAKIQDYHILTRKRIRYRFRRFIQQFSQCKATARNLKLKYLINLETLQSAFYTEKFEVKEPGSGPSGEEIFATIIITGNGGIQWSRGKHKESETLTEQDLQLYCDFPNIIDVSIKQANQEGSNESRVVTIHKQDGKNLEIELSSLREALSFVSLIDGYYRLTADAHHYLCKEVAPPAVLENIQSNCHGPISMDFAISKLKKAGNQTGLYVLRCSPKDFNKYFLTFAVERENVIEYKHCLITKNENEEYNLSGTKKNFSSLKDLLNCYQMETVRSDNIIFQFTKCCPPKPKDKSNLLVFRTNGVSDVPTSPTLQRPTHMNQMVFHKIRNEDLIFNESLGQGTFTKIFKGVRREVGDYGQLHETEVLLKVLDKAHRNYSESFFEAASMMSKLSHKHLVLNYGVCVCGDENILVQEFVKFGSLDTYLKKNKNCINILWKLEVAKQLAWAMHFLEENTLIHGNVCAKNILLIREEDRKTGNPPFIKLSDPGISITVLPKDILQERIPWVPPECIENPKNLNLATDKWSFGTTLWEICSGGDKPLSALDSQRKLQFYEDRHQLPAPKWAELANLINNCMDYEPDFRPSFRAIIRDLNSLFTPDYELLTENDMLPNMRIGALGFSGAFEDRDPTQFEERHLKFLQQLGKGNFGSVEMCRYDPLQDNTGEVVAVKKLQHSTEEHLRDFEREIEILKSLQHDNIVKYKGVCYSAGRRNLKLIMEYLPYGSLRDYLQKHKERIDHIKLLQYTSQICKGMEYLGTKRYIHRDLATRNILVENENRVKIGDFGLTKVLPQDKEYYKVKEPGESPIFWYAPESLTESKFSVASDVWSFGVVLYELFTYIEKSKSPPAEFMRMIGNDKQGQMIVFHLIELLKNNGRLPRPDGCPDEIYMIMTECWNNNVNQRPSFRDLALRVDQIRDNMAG

SNU-C1 = test: cells; format: cell-based; settings: for Basal_Viability ATP SNU-C1 IC50/EC50: assay number 30
[4] = system: ECFC/ADSC co-culture cell nuclei number
STC-1 cell line = format: cell-based, mouse; settings: for mSTC-1 GLP1 Secretion IC50/EC50: assay number 13
SW480 = test: cells; format: cell-based; settings: for Basal_Viability ATP SW480 IC50/EC50: assay number 24
DLD-1 = test: cells; format: cell-based; settings: for Basal_Viability ATP DLD-1 IC50/EC50: assay number 23
[5] = system: HCT116 cells treated with a GSK3β inhibitor; test: cells; format: cell-based; settings: assay number 26; GSK3b inhibitor pretreated
NCI-H716 cells = test: cells; format: cell-based, Human; settings: for hNCI-H716 GLP1 Secretion IC50/EC50: assay number 12
hFLT3 = molecular target: T3, hFLT3 (Homo sapiens, UniProt P36888); test: Cerep LANCE kinase assay hFLT3 (S1 assay 35); format: biochemical; settings: for hFLT3 LANCE IC50/EC50: assay number 35
T3 construct: purchased Cerep (LANCE kinase assay platform, contract assay)
T3 sequence (P36888 27-993): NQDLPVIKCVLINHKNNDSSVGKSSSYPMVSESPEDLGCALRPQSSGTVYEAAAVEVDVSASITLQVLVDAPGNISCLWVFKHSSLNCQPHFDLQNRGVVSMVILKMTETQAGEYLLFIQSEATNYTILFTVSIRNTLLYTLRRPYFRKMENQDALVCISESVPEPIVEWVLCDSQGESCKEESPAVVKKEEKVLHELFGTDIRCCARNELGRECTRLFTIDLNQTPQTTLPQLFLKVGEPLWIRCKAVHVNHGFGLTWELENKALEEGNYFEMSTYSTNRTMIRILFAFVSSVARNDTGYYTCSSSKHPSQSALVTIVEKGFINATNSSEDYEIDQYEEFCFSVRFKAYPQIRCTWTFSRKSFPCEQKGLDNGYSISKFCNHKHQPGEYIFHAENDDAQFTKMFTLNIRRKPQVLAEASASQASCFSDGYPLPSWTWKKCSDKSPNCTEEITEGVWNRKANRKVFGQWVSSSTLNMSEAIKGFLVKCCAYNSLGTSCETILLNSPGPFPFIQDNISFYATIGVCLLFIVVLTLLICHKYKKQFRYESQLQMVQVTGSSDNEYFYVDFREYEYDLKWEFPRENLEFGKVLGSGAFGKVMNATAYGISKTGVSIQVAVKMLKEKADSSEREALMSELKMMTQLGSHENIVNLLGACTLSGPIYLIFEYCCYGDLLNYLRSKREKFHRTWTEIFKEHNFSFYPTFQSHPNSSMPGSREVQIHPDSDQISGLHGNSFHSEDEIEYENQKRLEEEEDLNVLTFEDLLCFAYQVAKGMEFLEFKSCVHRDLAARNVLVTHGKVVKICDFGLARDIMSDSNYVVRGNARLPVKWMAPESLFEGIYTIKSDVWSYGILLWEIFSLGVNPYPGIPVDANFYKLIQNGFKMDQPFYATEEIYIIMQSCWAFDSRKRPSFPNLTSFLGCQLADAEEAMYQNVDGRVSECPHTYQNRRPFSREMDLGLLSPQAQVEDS

HT-29 = test: cells; format: cell-based; settings: for Basal_Viability ATP HT-29 IC50/EC50: assay number 28
Colo320 = test: cells; format: cell-based; settings: for Basal_Viability ATP Colo 320 IC50/EC50: assay number 27
hp70S6K1 (RPS6KB1) = molecular target: T4, hp70S6K1 (RPS6KB1) (Homo sapiens, UniProt P23443); test: Cerep LANCE kinase assay hp70S6K1 (S1 assay 31); format: biochemical; settings: for hp70S6K1 LANCE IC50/EC50: assay number 31
T4 construct: purchased Cerep (LANCE kinase assay platform, contract assay)
T4 sequence (P23443 whole entry): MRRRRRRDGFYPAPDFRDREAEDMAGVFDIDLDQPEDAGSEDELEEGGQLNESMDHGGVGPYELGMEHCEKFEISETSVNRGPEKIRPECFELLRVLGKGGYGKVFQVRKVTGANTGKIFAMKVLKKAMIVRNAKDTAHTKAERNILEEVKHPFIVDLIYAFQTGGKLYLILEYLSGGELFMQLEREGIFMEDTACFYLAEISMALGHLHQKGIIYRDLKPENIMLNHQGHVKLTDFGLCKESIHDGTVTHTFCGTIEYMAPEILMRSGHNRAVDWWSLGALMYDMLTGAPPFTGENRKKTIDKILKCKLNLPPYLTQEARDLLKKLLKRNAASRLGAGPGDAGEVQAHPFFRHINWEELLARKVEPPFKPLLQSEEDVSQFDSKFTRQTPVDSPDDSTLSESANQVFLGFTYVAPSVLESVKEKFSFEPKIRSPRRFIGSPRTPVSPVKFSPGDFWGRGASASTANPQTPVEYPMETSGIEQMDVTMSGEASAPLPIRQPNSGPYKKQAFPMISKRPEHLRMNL

RKO = test: cells; format: cell-based
[6] = system: alkaline phosphatase (ALP) activity in C2C12 cells; format: cell-based; settings: concentration response; for WntCondMedia_Alk Phos C2C12 IC50/EC50: assay number 6
HeLa cells = test: cells; format: cell-based; settings: for Hela CellCycMod PI 2N IC50/EC50: assay number 14; for Hela CellCycMod PI 4N IC50/EC50: assay number 16; for Hela CellCycMod PI MI IC50/EC50: assay number 17; for Hela CellCycMod PI Cell Number IC50/EC50: assay number 18
HCT116 = test: cells; format: cell-based; settings: basal; for Basal_Viability ATP HCT116 IC50/EC50: assay number 25
[7] = system: nuclear β-catenin in C2C12 cells; test: cells; format: cell-based; settings: concentration response; for WntCondMedia_bCatenin C2C12 IC50/EC50: assay number 5
hKDR = molecular target: T5, hKDR (Homo sapiens, UniProt P35968); test: Cerep LANCE kinase assay hKDR (S1 assay 32); format: biochemical; settings: for hKDR LANCE IC50/EC50: assay number 32
T5 construct: purchased Cerep (LANCE kinase assay platform, contract assay)
T5 sequence (P35968 20-1356): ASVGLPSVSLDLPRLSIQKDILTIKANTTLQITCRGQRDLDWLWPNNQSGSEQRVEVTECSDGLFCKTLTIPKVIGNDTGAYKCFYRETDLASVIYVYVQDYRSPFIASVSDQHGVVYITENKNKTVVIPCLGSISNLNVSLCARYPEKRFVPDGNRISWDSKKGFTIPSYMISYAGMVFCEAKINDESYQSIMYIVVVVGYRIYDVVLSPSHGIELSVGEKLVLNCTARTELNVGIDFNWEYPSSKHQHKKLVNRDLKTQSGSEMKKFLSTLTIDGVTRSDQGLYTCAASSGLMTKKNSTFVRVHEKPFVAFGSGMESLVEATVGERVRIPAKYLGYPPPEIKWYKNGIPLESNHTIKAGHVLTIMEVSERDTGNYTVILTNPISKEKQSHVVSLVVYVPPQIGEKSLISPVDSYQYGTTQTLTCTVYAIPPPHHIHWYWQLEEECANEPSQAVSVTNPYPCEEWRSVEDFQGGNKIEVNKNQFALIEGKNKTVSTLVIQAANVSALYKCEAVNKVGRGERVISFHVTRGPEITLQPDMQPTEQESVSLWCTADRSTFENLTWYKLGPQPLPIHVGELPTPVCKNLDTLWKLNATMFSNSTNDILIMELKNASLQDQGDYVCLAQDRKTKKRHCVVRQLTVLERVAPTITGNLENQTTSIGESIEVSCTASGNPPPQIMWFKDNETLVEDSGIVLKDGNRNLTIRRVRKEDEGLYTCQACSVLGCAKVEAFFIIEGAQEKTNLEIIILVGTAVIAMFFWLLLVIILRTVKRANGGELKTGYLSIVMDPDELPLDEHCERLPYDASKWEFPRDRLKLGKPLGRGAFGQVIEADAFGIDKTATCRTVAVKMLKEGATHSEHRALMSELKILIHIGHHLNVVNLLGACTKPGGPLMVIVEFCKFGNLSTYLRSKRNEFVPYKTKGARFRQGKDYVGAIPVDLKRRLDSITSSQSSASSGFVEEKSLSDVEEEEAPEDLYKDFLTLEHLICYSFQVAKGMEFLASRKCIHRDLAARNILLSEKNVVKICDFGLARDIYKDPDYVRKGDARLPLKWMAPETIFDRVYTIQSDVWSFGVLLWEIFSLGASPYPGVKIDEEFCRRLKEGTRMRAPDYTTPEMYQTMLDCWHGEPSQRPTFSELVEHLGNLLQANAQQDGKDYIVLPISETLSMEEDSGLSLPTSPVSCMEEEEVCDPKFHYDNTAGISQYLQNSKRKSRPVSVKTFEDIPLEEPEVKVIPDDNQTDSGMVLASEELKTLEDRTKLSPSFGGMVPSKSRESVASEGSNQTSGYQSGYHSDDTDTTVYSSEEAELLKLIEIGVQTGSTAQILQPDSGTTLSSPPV
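Wherever 5mMGluc INS1E SecretionMod IC50/EC50 is given: secreted insulin quantified by homogeneous immunoassay.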
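Wherever IC50/EC50, 5mMGluc INS1E SecretionMod (assay number 8) is given: secreted insulin quantified by homogeneous immunoassay.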

Structure (SMILES): CC(C)(Cc1c[nH]c2ccccc12)NCC(O)COc1ccccc1C#N (centres unmarked) [NCGC00167817-02]
- 0.1mMGluc_INS1E SecretionMod Act IC50/EC50 (INS-1E cells [1]): > 33.33 µM
- 5mMGluc_INS1E SecretionMod IC50/EC50 (INS-1E cells [2]): 15.0119 µM

Structure (SMILES): Cl.N[C@@H]1C[C@H]1c1ccccc1 [NCGC00016598-02]
- 0.1mMGluc_INS1E SecretionMod Act IC50/EC50 (INS-1E cells [1]): > 33.33 µM
- 5mMGluc_INS1E SecretionMod IC50/EC50 (INS-1E cells [2]): > 33.33 µM

Structure (SMILES): CCCCCCCCCCCCCC[N+](C)(C)C.[Br-] [NCGC00166121-03]
- hGSK3b LANCE IC50/EC50 (hGSK3b): > 20 µM
- VEGF_ADSC\ECFC Angio CD31 TubeArea IC50/EC50 [3]: 1.9016 µM
- hJAK2 LANCE IC50/EC50 (hJAK2): > 20 µM
- Basal_Viability ATP SNU-C1 IC50/EC50 (SNU-C1): 0.00517 µM
- VEGF_ADSC\ECFC Angio Hoechst NucArea IC50/EC50 [4]: 6.684 µM
- mSTC-1 GLP1 Secretion IC50/EC50 (STC-1 cell line): > 40 µM
- Basal_Viability ATP SW480 IC50/EC50 (SW480): 0.9328 µM
- Basal_Viability ATP DLD-1 IC50/EC50 (DLD-1): 0.4746 µM
- GSK3b inh pretreated_Viability ATP HCT116 IC50/EC50 [5]: 0.754 µM
- hNCI-H716 GLP1 Secretion IC50/EC50 (NCI-H716 cells): 18.5931 µM
- hFLT3 LANCE IC50/EC50 (hFLT3): > 20 µM
- Basal_Viability ATP HT-29 IC50/EC50 (HT-29): 1.32 µM
- Basal_Viability ATP Colo 320 IC50/EC50 (Colo320): 2.516 µM
- hp70S6K1 LANCE IC50/EC50 (hp70S6K1 (RPS6KB1)): > 20 µM
- Basal_Viability ATP RKO IC50/EC50 (RKO; assay number 29): 0.1473 µM
- WntCondMedia_Alk Phos C2C12 IC50/EC50 [6]: > 20 µM
- Hela CellCycMod PI 2N IC50/EC50 (HeLa cells; 2N): > 10 µM
- Hela CellCycMod PI S Phase IC50/EC50 (HeLa cells; assay number 15, S phase): > 10 µM
- Hela CellCycMod PI 4N IC50/EC50 (HeLa cells; 4N): > 10 µM
- Hela CellCycMod PI MI IC50/EC50 (HeLa cells; MI): > 10 µM
- Hela CellCycMod PI Cell Number IC50/EC50 (HeLa cells): 3.3211 µM
- Basal_Viability ATP HCT116 IC50/EC50 (HCT116): 2.287 µM
- WntCondMedia_bCatenin C2C12 IC50/EC50 [7]: > 20 µM
- hKDR LANCE IC50/EC50 (hKDR): > 20 µM

Structure (SMILES): CN(C)CCOC(c1ccc(Cl)cc1)c1ccccn1 (centres unmarked) [NCGC00166141-06]
- 0.1mMGluc_INS1E SecretionMod Act IC50/EC50 (INS-1E cells [1]): > 33.33 µM
- 5mMGluc_INS1E SecretionMod IC50/EC50 (INS-1E cells [2]): 21.3759 µM

Structure (SMILES): CCCCN1CCCCC1C(=O)Nc1c(C)cccc1C (centres unmarked) [NCGC00178579-04]
- 0.1mMGluc_INS1E SecretionMod Act IC50/EC50 (INS-1E cells [1]): > 33.33 µM
- 5mMGluc_INS1E SecretionMod IC50/EC50 (INS-1E cells [2]): 27.1706 µM

Structure (SMILES): Cc1cc2c(OCC(CNC(C)(C)C)OC(=O)c3ccccc3)cccc2[nH]1 (centres unmarked) [NCGC00263654-01]
- 0.1mMGluc_INS1E SecretionMod Act IC50/EC50 (INS-1E cells [1]): > 33.33 µM
- 5mMGluc_INS1E SecretionMod IC50/EC50 (INS-1E cells [2]): 14.6026 µM

Structure (SMILES): CCN(CC)CCNC(C(=O)OCCC(C)C)c1ccccc1 (centres unmarked) [NCGC00164526-02]
- 0.1mMGluc_INS1E SecretionMod Act IC50/EC50 (INS-1E cells [1]): > 33.33 µM
- 5mMGluc_INS1E SecretionMod IC50/EC50 (INS-1E cells [2]): 24.7717 µM

Structure (SMILES): NC(=NCCCCCCN=C(N)/N=C(\N)Nc1ccc(Cl)cc1)/N=C(\N)Nc1ccc(Cl)cc1 [NCGC00016246-09]
- IC50/EC50, hGSK3b LANCE (assay number 34) (hGSK3b): > 20 µM
- IC50/EC50, VEGF_ADSC\ECFC Angio CD31 TubeArea (assay number 2) [3]: 1.3455 µM
- IC50/EC50, hJAK2 LANCE (assay number 33) (hJAK2): > 20 µM
- IC50/EC50, Basal_Viability ATP SNU-C1 (assay number 30) (SNU-C1; basal): 0.4386 µM
- IC50/EC50, VEGF_ADSC\ECFC Angio Hoechst NucArea (assay number 3) [4]: > 10 µM
- IC50/EC50, mSTC-1 GLP1 Secretion (assay number 13) (STC-1 cell line; concentration response): 10.3287 µM
- IC50/EC50, Basal_Viability ATP SW480 (assay number 24) (SW480; basal): 5.6664 µM
- IC50/EC50, Basal_Viability ATP DLD-1 (assay number 23) (DLD-1; basal): 2.8031 µM
- IC50/EC50, hNCI-H716 GLP1 Secretion (assay number 12) (NCI-H716 cells; concentration response): 26.2027 µM
- IC50/EC50, hFLT3 LANCE (assay number 35) (hFLT3): > 20 µM
- IC50/EC50, Basal_Viability ATP HT-29 (assay number 28) (HT-29; basal): 3.7852 µM
- IC50/EC50, Basal_Viability ATP Colo 320 (assay number 27) (Colo320; basal): 5.1631 µM
- IC50/EC50, hp70S6K1 LANCE (assay number 31) (hp70S6K1 (RPS6KB1)): > 20 µM
- IC50/EC50, Basal_Viability ATP RKO (assay number 29) (RKO; basal): 4.5801 µM
- IC50/EC50, WntCondMedia_Alk Phos C2C12 (assay number 6) [6]: > 20 µM
- IC50/EC50, Hela CellCycMod PI 2N (assay number 14) (HeLa cells; 2N): > 10 µM
- IC50/EC50, Hela CellCycMod PI 4N (assay number 16) (HeLa cells; 4N): > 10 µM
- IC50/EC50, Hela CellCycMod PI Cell Number (assay number 18) (HeLa cells; Cell Number): 6.7072 µM
- IC50/EC50, Hela CellCycMod PI MI (assay number 17) (HeLa cells; MI): > 10 µM
- IC50/EC50, Basal_Viability ATP HCT116 (assay number 25) (HCT116): 4.3853 µM
- IC50/EC50, WntCondMedia_bCatenin C2C12 (assay number 5) [7]: > 20 µM
- IC50/EC50, hKDR LANCE (assay number 32) (hKDR): > 20 µM
- IC50/EC50, 5mMGluc_INS1E SecretionMod (assay number 8) (INS-1E cells [2]): 25.1792 µM

Structure (SMILES): Cc1ccc([N+](=O)[O-])[c]2c1[O][Hg]2 [NCGC00249897-01]
- hGSK3b LANCE IC50/EC50 (hGSK3b): 8.37 µM
- VEGF_ADSC\ECFC Angio CD31 TubeArea IC50/EC50 [3]: 0.6678 µM
- hJAK2 LANCE IC50/EC50 (hJAK2): > 20 µM
- Basal_Viability ATP SNU-C1 IC50/EC50 (SNU-C1; basal): 0.2022 µM
- VEGF_ADSC\ECFC Angio Hoechst NucArea IC50/EC50 [4]: 1.087 µM
- mSTC-1 GLP1 Secretion IC50/EC50 (STC-1 cell line): 0.0972 µM
- Basal_Viability ATP SW480 IC50/EC50 (SW480; basal): 1.1294 µM
- Basal_Viability ATP DLD-1 IC50/EC50 (DLD-1; basal): 1.6221 µM
- GSK3b inh pretreated_Viability ATP HCT116 IC50/EC50 [5]: > 2.2222 µM
- hNCI-H716 GLP1 Secretion IC50/EC50 (NCI-H716 cells): 9.871 µM
- hFLT3 LANCE IC50/EC50 (hFLT3): 10.38 µM
- Basal_Viability ATP HT-29 IC50/EC50 (HT-29; basal): 1.4429 µM
- Basal_Viability ATP Colo 320 IC50/EC50 (Colo320; basal): 0.935 µM
- hp70S6K1 LANCE IC50/EC50 (hp70S6K1 (RPS6KB1)): > 20 µM
- WntCondMedia_Alk Phos C2C12 IC50/EC50 [6]: 0.1552 µM
- Hela CellCycMod PI 2N IC50/EC50 (HeLa cells; 2N): > 10 µM
- Hela CellCycMod PI 4N IC50/EC50 (HeLa cells; 4N): > 10 µM
- Hela CellCycMod PI MI IC50/EC50 (HeLa cells; MI): 1.2179 µM
- Hela CellCycMod PI Cell Number IC50/EC50 (HeLa cells): 0.3851 µM
- Basal_Viability ATP HCT116 IC50/EC50 (HCT116): 2.8299 µM
- WntCondMedia_bCatenin C2C12 IC50/EC50 [7]: 1.5133 µM
- hKDR LANCE IC50/EC50 (hKDR): 16.8 µM
- 5mMGluc_INS1E SecretionMod IC50/EC50 (INS-1E cells [2]): > 33.33 µM

Structure (SMILES): C#CCOC(C(=O)OCCN(C)C)(c1ccccc1)c1ccccc1 [NCGC00164558-02]
- 0.1mMGluc_INS1E SecretionMod Act IC50/EC50 (INS-1E cells [1]): 9.666 µM
- 5mMGluc_INS1E SecretionMod IC50/EC50 (INS-1E cells [2]): 9.257 µM

Structure (SMILES): Nc1c2c(nc3ccccc13)CCCC2 [NCGC00015054-12]
- 0.1mMGluc_INS1E SecretionMod Act IC50/EC50 (INS-1E cells [1]): > 33.33 µM
- 5mMGluc_INS1E SecretionMod IC50/EC50 (INS-1E cells [2]): 17.6112 µM
